Assay [1] deals with IFN production in THP1 TREX1 KO cells. As to the kind of experiment: Cellular assay for altering IFN production in THP1 TREX1 KO cells. It counts as cell-based. As to conditions: FIG. 6-8, % induction versus compound concentration. Here is the method: THP1-Dual™ KO-TREX1 cells were purchased from Invivogen (cat #thpd-kotrex). The THP1-Dual™ KO-TREX1 cells were cultured in RPMI 1640, 10% heat-inactivated fetal bovine serum, 25 mM HEPES, 10 μg/mL Blasticidin, and […] Zeocin. THP1-Dual™ KO-TREX cells were treated with a dose titration of test compound in the presence of 1 μM 5-aza-2′-deoxycytidine (Sigma, cat #189825). Type 1 Interferon and cell viability were assessed after five days of treatment.
Stock solution of test compound was prepared in DMSO followed by a three-fold dilution in DMSO. Additional 50× dilution was prepared in cell culture media for each dilution. 10 μL of diluted test compound was then added to a 384-well plate.
THP1-Dual™ KO-TREX1 cells were treated with 1 μM 5-aza-2′-deoxycytidine. THP1-Dual™ KO-TREX1 cells (50 μL) were added to each well of the 384-well plate containing test compound titration at 10,000 cells/well. Cells were incubated at 37° C., 5% CO2 in a humidified incubator for five days. On day five, 20 μL of cell supernatant was transferred to a 384-well, white-walled plate, followed by addition to each well of 50 μL of QUANTI-LUC solution containing stabilizer. Luminescence was detected on a plate reader according to manufacturer's instructions.
For certain compounds, the assay was run in a 96-well format, with the following modifications: • 190 μL, instead of 50 μL, of cells were added to each well, to provide 50,000 cells/well, instead of 10,000 cells/well, • Cells were incubated for 6 days, instead of 5 days, • 25 μL, instead of 20 μL, of cell supernatant was added to the white-walled plate for QUANT-LUC treatment; and • 25 μL, instead of 30 μL, of CellTiter-Glo was added to assess cell viability.
Percent inhibition of interferon was calculated using the following analysis: (Average DMSO-Sample)/(Average DMSO-Average 30 μM control reagent)*100. The control reagent for inhibition of interferon was a specific nucleoside reverse-transcriptase inhibitor with molecular weight <600 a.m.u. Percent induction of interferon was calculated using the following analysis: (Sample-Average DMSO)/(10 μM control reagent-Average DMSO)*100. The control reagent for induction of interferon was compound 8 (4′-ethynyl-2-chloro-2′-deoxyadenosine).

For assay [2], the system named is interferon-stimulated gene (ISG) expression. The assay can be described thus: In vivo decitabine challenge model. The arrangement: species or system C57BL/6 mice. As to conditions: mice; decitabine i.p. 5 mg/kg and islatravir p.o. 0.6-6.0 mg/kg once a day Day 0 to Day 4; IFIT2 v. GAPDH. The protocol: Twenty 9-11 week old C57BL/6 mice were acclimated to the lab for at least 5 days. Islatravir (4′-ethynyl-2-fluoro-2′-deoxyadenosine) was prepared in a 0.5% methylcellulose solution for p.o. administration. Decitabine (Sigma) was dissolved in sterile PBS (pH 7.4) and dosed within 30 minutes of preparation of the solution. Doses of both islatravir and decitabine were administered once a day, every day from Day 0 to Day 4.
On Day 0, mice were split into four groups of five mice and given their first dose of decitabine (i.p., 5 mg/kg) and […]. Dosing groups were:
Decitabine and islatravir were administered daily from Day 0 to Day 4. All mice were euthanized 1 hour after the last dose administration on Day 4. Spleens, liver, and terminal colon were collected, along with plasma from each animal. The fold changes in interferon-stimulated gene (ISG) expression was calculated by first normalizing to GAPDH gene using the Delta CT method. The CT (gene of interest)−CT (reference gene) was calculated to generate a delta CT for all samples. The fold change was then calculated by taking the […](Delta CT(control)−Delta CT (experimental). The control in this example was the PBS control animal group. The Taqman duplex assay (Thermo Fisher 4331182 and 4448489) was used according to the manufacturer's instructions to determine levels of GAPDH v. IFIT2.

The target in assay [3] is LINE1 reverse transcriptase (Homo sapiens, UniProt O00370). The assay can be described thus: Stable artificial-intron Cis LINE1 reporter assay. It counts as cell-based. Further details: expressed in transfected cells. The conditions noted are these: HeLa L1 artificial-intron reporter cells, doxycycline-induced, 72 h, Firefly luciferase activity. An excerpt:
A stable HeLa Tet-On 3G (Takara, cat no 631183) cell line expressing a bi-directional inducible LINE1 construct was generated as described in Xie, Y. et al. “Cell division promotes efficient retrotransposition in a stable L1 reporter cell line,” Mobile DNA (2013) 4:10. Single cell clones were screened for high Luciferase expression and the highest expression Firefly expressing clone was chosen for compound testing.
Test compounds were serially diluted in DMSO and spotted in 96-well plates. Subsequently the HeLa L1 artificial-intron reporter cells were plated into the compound-containing wells (8,000 cells/well), and the cells were induced for reporter expression with doxycycline (Sigma cat no D9891) at a final concentration of 500 ng/mL. Luminescence was measured 72 h after plating using the Dual-Glo Luciferase Assay System (Promega cat no E2940) following the manufacturer's instructions. The Firefly Luciferase activity (normalized against its activity in a control well without test compound) was used to report LINE1 activity.
A general note: A reporter such as luciferase makes a cellular process visible.

In assay [4] the test system is Esophageal cancer KYSE-70 cells. The assay can be described thus: Cancer cell viability assay with 3D cell colonies (CellTiter-Glo), KYSE-70. It counts as cell-based. The conditions noted are these: Homo sapiens, 168 h; KYSE-70, 3D methylcellulose colonies, 7 days. Here is the method:
(§1) Cancer cell lines were cultured in the following media: • Ovarian cancer OVCAR-8 cells—RPMI media containing 10% FBS • Ovarian cancer SK-OV-3 cells—McCoy's 5a media containing 10% FBS • Ovarian cancer SW756 cells—L-15 (100% air)+10% FBS • Esophageal cancer TE-1 cells—RPMI-1640+10% FBS • Esophageal cancer KYSE-410 cells—RPMI-1640+5˜10% FBS • Esophageal cancer KYSE-70 cells—RPMI-1640+10% h.i.FBS. • Pharyngeal cancer FaDu cells—MEM+0.01 mM NEAA+10% FBS
(§2) Cell colony formation was tested using a 3D methylcellulose-based CellTiter-Glo (CTG) viability assay (Cat. No: G7573, Promega). Briefly, cells were inoculated into 96-well plates (at 1,500 cells per well) into a solution of 0.65% methylcellulose in growth media and incubated overnight at 37° C. in 5% CO2. The next day, serially diluted test compound (islatravir, 4′-ethynyl-2-fluoro-2′-deoxyadenosine) or positive control (cisplatin, Cat. No. 6J015A89, Qilu Pharma) were added at the indicated concentrations, and the cells were incubated for 7 days. On day seven, 100 μL of CTG reagent was added, and the plates were incubated at room temperature for 20 min. Luminescence was read on an Envision Multi Label Reader according to manufacturer's instructions. IC50 values were determined using the following calculation: […]
(ATP-based viability assays read luminescence as a measure of living cells.)

The test system of assay [5] is Pharyngeal cancer FaDu cells. As to the kind of experiment: Cancer cell viability assay with 3D cell colonies (CellTiter-Glo), FaDu. It counts as cell-based. As to conditions: Homo sapiens, 168 h, 3D methylcellulose colonies, 7 days. The protocol: as §1, §2

Broadly, the IC50 is the midpoint of a concentration-inhibition curve. Low values mean greater potency in that assay, high ones weaker potency in that assay.

Chain of LINE1 reverse transcriptase (O00370 whole entry, looked up): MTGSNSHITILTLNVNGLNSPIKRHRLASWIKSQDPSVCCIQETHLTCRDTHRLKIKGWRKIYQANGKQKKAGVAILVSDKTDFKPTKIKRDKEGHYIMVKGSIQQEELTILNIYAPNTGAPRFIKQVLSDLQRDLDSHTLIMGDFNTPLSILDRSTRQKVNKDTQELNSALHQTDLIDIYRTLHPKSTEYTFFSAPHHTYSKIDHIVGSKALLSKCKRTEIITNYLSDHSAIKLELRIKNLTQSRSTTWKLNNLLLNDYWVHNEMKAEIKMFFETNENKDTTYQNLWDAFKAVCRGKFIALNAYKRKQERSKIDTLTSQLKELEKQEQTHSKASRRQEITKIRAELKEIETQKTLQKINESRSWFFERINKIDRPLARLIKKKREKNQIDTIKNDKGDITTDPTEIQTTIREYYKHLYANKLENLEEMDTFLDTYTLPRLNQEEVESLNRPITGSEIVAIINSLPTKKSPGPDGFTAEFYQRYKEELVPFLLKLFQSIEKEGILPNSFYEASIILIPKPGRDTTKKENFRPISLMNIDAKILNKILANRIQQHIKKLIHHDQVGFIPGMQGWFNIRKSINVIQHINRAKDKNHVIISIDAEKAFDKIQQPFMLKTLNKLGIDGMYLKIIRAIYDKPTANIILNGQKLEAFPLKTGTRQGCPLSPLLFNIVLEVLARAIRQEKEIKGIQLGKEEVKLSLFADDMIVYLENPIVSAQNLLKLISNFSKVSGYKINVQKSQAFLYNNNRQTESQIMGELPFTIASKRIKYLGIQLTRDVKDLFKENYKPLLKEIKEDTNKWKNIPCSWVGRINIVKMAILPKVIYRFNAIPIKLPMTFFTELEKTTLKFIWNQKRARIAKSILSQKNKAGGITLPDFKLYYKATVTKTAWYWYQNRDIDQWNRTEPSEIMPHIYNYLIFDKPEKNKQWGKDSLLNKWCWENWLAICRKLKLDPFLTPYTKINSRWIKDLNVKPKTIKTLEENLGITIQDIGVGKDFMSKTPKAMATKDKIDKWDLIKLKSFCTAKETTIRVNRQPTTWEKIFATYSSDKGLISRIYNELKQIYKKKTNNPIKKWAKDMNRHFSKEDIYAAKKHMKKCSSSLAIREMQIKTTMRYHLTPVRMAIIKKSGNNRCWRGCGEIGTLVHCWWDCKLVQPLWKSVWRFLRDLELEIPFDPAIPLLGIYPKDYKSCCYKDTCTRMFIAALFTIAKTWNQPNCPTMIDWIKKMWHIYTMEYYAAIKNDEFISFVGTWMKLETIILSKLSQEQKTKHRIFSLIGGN

On to `C#C[C@]1(CO)O[C@@H](n2cnc3c(N)nc(F)nc32)C[C@@H]1O` [islatravir, 4′-ethynyl-2-fluoro-2′-deoxyadenosine], for which the “change in IFN levels (figure)” value in assay [1] is recorded as “induction of IFN”. Moreover, in assay [2], the “interferon-stimulated gene (ISG) response” value is on record as “showed the change in ISG response”. Further, the IC50 in assay [3] was ≤ 0.05 µM; in assay [4], 10 to 30 µM; in assay [5], 10 to 30 µM.

The record behind these values is patent US20240366649A1, “4-ETHYNYL-3-HYDROXY-TETRAHYDROFURANYL-ADENINE PHOSPHORAMIDATES AND RELATED COMPOUNDS AND THEIR USE IN TREATING MEDICAL CONDITIONS” (ROME THERAPEUTICS, INC., priority 2021, published 2024).
